Laboratory results as given in ChEMBL document CHEMBL4651402, “Screening of ~5500 FDA-approved drugs and clinical candidates for anti-SARS-CoV-2 activity” (2021).

Tested on: SARS-CoV-2
Assay: microbe, parasite or virus in culture
Conditions: Severe acute respiratory syndrome coronavirus 2, Vero C1008, 48 h

Row | SMILES | IC50 [µM] | IC50 (read-out: pIC50 (converted)) [µM]
1 | Brc1c(NC2=NCCN2)ccc2nccnc12 [BRIMONIDINE] | > 20 | > 20
2 | CC=C(C)C(=O)O[C@@H]1c2c(ccc3ccc(=O)oc23)OC(C)(C)[C@@H]1OC(C)=O | > 20 | > 20
3 | NC[C@H]1O[C@H](O[C@H]2[C@H](O)[C@@H](O[C@H]3O[C@H](CO)[C@@H](O)[C@H](N)[C@H]3O)[C@H](N)C[C@@H]2N)[C@H](O)[C@@H](O)[C@@H]1O [KANAMYCIN] | > 20 | > 20
4 | CCN1CCN(C(=O)NC(C(=O)NC2C(=O)N3C2SC(C)(C)C3C(=O)O)c2ccccc2)C(=O)C1=O (stereo unspecified) | > 20 | > 20
5 | CC(C)NCC1CCc2cc(CO)c([N+](=O)[O-])cc2N1 (stereo unspecified) [OXAMNIQUINE] | > 20 | > 20
6 | C[C@@]12CCCCC[C@@H](Cc3ccc(O)cc31)[C@@H]2N [DEZOCINE] | > 20 | > 20
7 | CC12CC3CC(C)(C1)CC(N)(C3)C2 [MEMANTINE] | > 20 | > 20
8 | C=CCNC1=C2C[C@@H](C)C[C@H](OC)[C@H](O)[C@@H](C)/C=C(/C)[C@H](OC(N)=O)[C@@H](OC)/C=C\C=C(\C)C(=O)NC(=CC1=O)C2=O | > 20 | > 20
9 | CCCCC[C@H](O)/C=C/[C@@H]1[C@@H](C/C=C\CCCC(=O)O)[C@@H](O)C[C@H]1O [DINOPROST] | > 20 | > 20
10 | CCCCN1C[C@@H](O)[C@@H](O)[C@H](O)[C@H]1CO | > 20 | > 20
11 | NCc1ccc2c(c1)nc(CN1C(=O)C3(CC3)c3ccc(F)cc31)n2CCCC(F)(F)F [SISUNATOVIR] | > 20 | > 20
12 | CCCCOc1ccc(CC(=O)NO)cc1 [BUFEXAMAC] | > 20 | > 20
13 | [2H]C([2H])([2H])O[C@@H]1CN(CCCOc2ccc(F)cc2)CC[C@@H]1NC(=O)c1cc(Cl)c(N)cc1OC | > 20 | > 20
14 | OC1CN(CCCOCCc2ccc3sccc3c2)C1 [T-817] | > 20 | > 20
15 | CC12CCC3C(CC[C@H]4Cc5n[nH]cc5C[C@]34C)C1CC[C@]2(C)O (stereo partly specified) | > 20 | > 20
16 | CCOCC(O)COc1ccc(NC(=O)CC[S+](C)C)cc1 (stereo unspecified) | > 20 | > 20
17 | O=C(C1CCCCC1)N1CC(=O)N2CCc3ccccc3C2C1 (stereo unspecified) [PRAZIQUANTEL] | > 50.1 | > 50.1
18 | O=C(O)c1cc2cc(Cc3cccnc3)ccc2o1 [FUREGRELATE] | > 20 | > 20
19 | COc1ccc(CN2CCNCC2)c(OC)c1OC [TRIMETAZIDINE] | > 20 | > 20
20 | Cc1ccc2c(c1)c1c(n2CCc2ccc(C)nc2)CCN(C)C1 [LATREPIRDINE] | > 20 | > 20
21 | Cc1cc(OC(=O)c2c(C)cc(O)cc2O)cc(O)c1C(=O)O [LECANORIC ACID] | > 20 | > 20

Row | SMILES | IC50 [µM] | IC50 (read-out: pIC50 (converted)) [µM]
22 | c1ccc([C@H]2CN3CCSC3=N2)cc1 [LEVAMISOLE] | > 20 | > 20
23 | C=C[C@@]1(C)CC(=O)[C@]2(O)[C@@]3(C)[C@@H](O)CCC(C)(C)[C@@H]3[C@H](O)[C@H](OC(C)=O)[C@@]2(C)O1 [COLFORSIN] | > 20 | > 20
24 | c1cnc(SCc2cccnc2)nc1 [TASULDINE] | > 20 | > 20
25 | CC(C)CCCC(C)C1CCC2C3C=CC4=CC(=O)CCC4(C)C3CCC12C (stereo unspecified) | > 20 | > 20
26 | CC(=O)Oc1ccccc1C(=O)Nc1ncc([N+](=O)[O-])s1 [NITAZOXANIDE] | > 20 | > 20
27 | CC(c1ccc(Cl)c(Cl)c1)N1N=C(N)CC1=O (stereo unspecified) [MUZOLIMINE] | > 20 | > 20
28 | CC(C)/N=c1\cc2n(-c3ccc(Cl)cc3)c3ccccc3nc-2cc1Nc1ccc(Cl)cc1 [CLOFAZIMINE] | > 20 | > 20
29 | CCOC(=O)C(=O)Nc1nc(-c2ccc(OC)cc2)cs1 [TIOXAMAST] | > 20 | > 20
30 | CCN(CC)CC/C(=N\OC(=O)Nc1ccc(OC)cc1)c1ccccc1 | > 20 | > 20
31 | CN1[C@@H]2CC[C@H]1C[C@@H](OC(=O)c1c[nH]c3ccccc13)C2 [TROPISETRON] | > 20 | > 20
32 | C=CCN1CC[C@]23CCCCC2[C@H]1Cc1ccc(O)cc13 (stereo partly specified) | > 20 | > 20
33 | CCNC1C2CCC(C2)C1c1ccccc1 (stereo unspecified) [FENCAMFAMIN] | > 20 | > 20
34 | CN1C(=O)CC(C)(c2ccccc2)C1=O (stereo unspecified) [METHSUXIMIDE] | > 20 | > 20
35 | COc1ccccc1C(=O)NCCc1ccc(S(=O)(=O)NC(=O)NC2CCCC2)cc1 [GLISENTIDE] | > 20 | > 20
36 | CCC(=O)NC[C@@H]1C[C@H]1c1cccc2c1CCO2 [TASIMELTEON] | > 20 | > 20
37 | c1cc2c(cc1C1CCCCC1)c1c3n2CCNC3CCC1 (stereo unspecified) | > 20 | > 20
38 | CC(=O)[C@H]1CC[C@H]2[C@@H]3CC=C4C[C@@H](OS(=O)(=O)O)CC[C@]4(C)[C@H]3CC[C@]12C | > 20 | > 20
39 | CC12CCC3C4CCC(=O)C=C4CCC3C1CCC2OC(=O)CCc1ccccc1 (stereo unspecified) | > 20 | > 20
40 | CCCCCCNC(=O)n1cc(F)c(=O)[nH]c1=O [CARMOFUR] | > 20 | > 20
41 | Nc1nc(F)nc2c1ncn2[C@@H]1O[C@H](COP(=O)(O)O)[C@@H](O)[C@@H]1O [FLUDARABINE PHOSPHATE] | > 20 | > 20
42 | CN(C)CCOC(c1ccccc1)c1ccccc1.Cn1c(=O)c2[nH]c(Cl)nc2n(C)c1=O [DIMENHYDRINATE] | > 20 | > 20

Row | SMILES | IC50 [µM] | IC50 (read-out: pIC50 (converted)) [µM]
43 | CCC(C(=O)OCCOCCN(CC)CC)c1ccccc1 (stereo unspecified) [BUTAMIRATE] | > 20 | > 20
44 | CC1CC[C@@]2(OC1)OC1CC3C4CC[C@H]5C[C@@H](O)CC[C@]5(C)C4C[C@@H](O)[C@]3(C)C1[C@@H]2C (stereo partly specified) | > 20 | > 20
45 | O=C(O)c1ccc(N[C@H]2OC[C@H](O)[C@@H](O)[C@H]2O)cc1 | > 20 | > 20
46 | CCN1CCN(Cc2ccc(-c3cc4c(N[C@H](C)c5ccccc5)ncnc4[nH]3)cc2)CC1 [AEE-788] | > 20 | > 20
47 | COc1cc(/C=C/C(=O)O)cc(OC)c1OC [SINAPIC ACID METHYL ETHER] | > 20 | > 20
48 | CCn1cnc(C(=O)NC)c1C(=O)NC | > 20 | > 20
49 | COc1cc(NCc2ccc3nc(N)nc(N)c3c2C)cc(OC)c1OC [TRIMETREXATE] | > 20 | > 20
50 | Cc1nnc2n1-c1ccc(Cl)cc1C(c1ccccc1)=NC2 [ALPRAZOLAM] | > 20 | > 20
51 | NC(=O)c1cnc2n1CCc1ccccc1C21CCNCC1 [VAPITADINE] | > 20 | > 20
52 | OCC1CCC(n2cnc3c(O)ncnc32)O1 (stereo unspecified) | > 20 | > 20
53 | O=C(O)CC/C=C/CCC1C(OCc2ccc(-c3ccccc3)cc2)CC(O)C1N1CCCCC1 (stereo unspecified) | > 20 | > 20
54 | CC(=O)[C@H]1CC[C@H]2[C@@H]3CCC4C[C@@H](O)CC[C@]4(C)[C@H]3CC[C@]12C (stereo partly specified) | > 20 | > 20
55 | CCCCC/C=C\C/C=C\CCCCCCCC(=O)O [LINOLEIC ACID] | > 20 | > 20
56 | CN1C(CSCC(F)(F)F)Nc2cc(Cl)c(S(N)(=O)=O)cc2S1(=O)=O (stereo unspecified) [POLYTHIAZIDE] | > 20 | > 20
57 | COC(=O)C1=C(C)NC(C)=C(C(=O)OC(C)C)C1c1cccc2nonc12 (stereo unspecified) [ISRADIPINE] | > 20 | > 20
58 | OCC(O)C(O)C(O)C(O)C(O)CO (stereo unspecified) [PERSEITOL] | > 20 | > 20
59 | CC1NC(=O)COC1c1ccccc1 (stereo unspecified) [FENMETRAMIDE] | > 20 | > 20
60 | CC(C)(C)OC(=O)c1ncn2c1[C@@H]1CCCN1C(=O)c1c(Br)cccc1-2 [BRETAZENIL] | > 20 | > 20
61 | O=C1C=C2C=C[C@@H]3C[C@@]2(O1)[C@H]1CCCCN31 [SECURININE] | > 20 | > 20
62 | C/C=C1\C(=O)C[C@H]2[C@@H]3CCC4=CC(=O)CC[C@]4(C)[C@H]3CC[C@]12C [GUGGULSTERONE] | > 20 | > 20
63 | Cn1c(=O)[nH]c(=O)c2[nH]cnc21 [3-METHYLXANTHINE] | > 20 | > 20
